In patent US10000500B2 (PROMEGA CORPORATION, priority 2016, dated 2018):

T1: Renilla luciferase (Renilla reniformis, UniProt P27652)
T1 sequence (P27652 1-311): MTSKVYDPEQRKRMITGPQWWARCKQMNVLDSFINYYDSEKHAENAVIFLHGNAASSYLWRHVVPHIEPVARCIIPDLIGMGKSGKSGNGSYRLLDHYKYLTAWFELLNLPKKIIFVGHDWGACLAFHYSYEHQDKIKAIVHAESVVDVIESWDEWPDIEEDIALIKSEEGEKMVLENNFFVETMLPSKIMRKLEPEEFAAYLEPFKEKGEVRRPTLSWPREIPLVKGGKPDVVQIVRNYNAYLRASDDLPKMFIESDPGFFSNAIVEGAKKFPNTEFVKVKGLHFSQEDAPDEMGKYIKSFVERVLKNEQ

B1: Renilla luciferase (Renilla reniformis) (protein)
chain: T1 sequence (P27652 1-311)

Tests used:
Format in all cases: biochemical
NANOLUC® Luciferase [1] = target: T2, NANOLUC® Luciferase (Oplophorus gracilirostris, UniProt Q9GV45, A31E/A60N/A81I/F95D/I117V/K70R/L54V/L99Q/M102K/N193R/P142E/Q151K/Q38R/Q45L/V71I/Y165I); assay: Spectral measurements in various buffers with NANOLUC luciferase (Example 10); settings: for High / Low / Peak / Width: emission spectrum
Description: Each compound to be screened was diluted to a concentration of 100 uM (50 uM final concentration) in Renilla Glo Luciferase Assay buffer (Promega Corporation), NANO-GLO Luciferase Assay Buffer (Promega Corporation), or 20 uM (10 uM final) in OptiMEM+0.1% FBS. NANOLUC® luciferase and Renilla luciferase were serially diluted to 4, 40, and 400 ng/ml in OptiMEM+0.1% FBS. 50 ul of each compound dilution was mixed with 50 ul enzyme dilution and incubated for 1 minute at room temperature. Autoluminescence spectra of AS-353 was measured by adding 20 uM of substrate to OptiMEM+20% FBS and then 50 ul of this dilution was combined with 50 ul of OptiMEM+0.1% FBS. Spectral measurements were measured using a Tecan M-1000 luminometer. ([…]).

NANOLUC® Luciferase [2] = target: T2, NANOLUC® Luciferase; assay: Enzyme titration with NanoLuc luciferase (Example 9B); settings: substrate 100 uM; FIG. 2B
Description: (§1) Renilla luciferase and NanoLuc Lucifersase were diluted to a concentration of 4 ug/ml (4 ng/uL) in OptiMEM+0.1% FBS. 10× serial dilutions of the luciferases were then prepared in OptiMEM+0.1% FBS. Each substrate was diluted to 100 uM into Renilla Glo Luciferase assay buffer (Promega Corporation). The 10× enzyme serial dilutions were then combined with the substrate dilutions, 50 ul mixed with 50 ul compound, and incubated for 1 minute at room temperature. Light output for each compound was measured on a GLOMAX®-Multi+ luminometer.

Renilla luciferase = target: T1, Renilla luciferase; assay: Enzyme titration with Renilla luciferase (Example 9B); settings: FIG. 2B
Description: as §1

[3] = substrate: O=c1c(Cc2ccco2)nc2c(Cc3ccccc3)[nH]c(-c3ccccc3)cn1-2; assay: Km and Vmax substrate titration with Renilla luciferase (Example 8); settings: other: Renilla luciferase 4 ng/ml; Renilla Glo buffer; Michaelis-Menten fit
Description: Each compound to be screened was diluted to a concentration of 100 uM in Renilla Glo Luciferase Assay buffer (Promega Corporation) and then further diluted to 2×serial dilution in Renilla Glo Luciferase Assay Buffer. NANOLUC® luciferase and Renilla luciferase were diluted to a concentration of 4 ng/ml in OptiMEM+0.1% FBS. 50 ul of each compound dilution was then mixed with 50 ul of each enzyme dilution and incubated for 1 minute at room temperature. Light output for each compound was measured on a GLOMAX®-Multi+ luminometer. Km and Vmax were calculated for each enzyme/substrate combination using a GraphPad Prism Michaelis-Menten non-linear fit (FIGS. 1A-ID).

T2 sequence (Q9GV45 28-196 with tags or gaps with the stated changes limits assumed): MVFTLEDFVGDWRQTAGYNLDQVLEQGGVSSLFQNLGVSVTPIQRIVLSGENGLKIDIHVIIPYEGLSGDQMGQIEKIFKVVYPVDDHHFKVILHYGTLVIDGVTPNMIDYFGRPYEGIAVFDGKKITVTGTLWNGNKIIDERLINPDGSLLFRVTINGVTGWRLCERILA

Molecule	shift of the NanoLuc luciferase spectral properties (NANOLUC® Luciferase [1]; FIGS. 3A-3C and 4A-4D)	NanoGlo (spectral peak, Table 4) (NANOLUC® Luciferase [1]; NanoLuc, NanoGlo buffer)	OptiMEM (spectral peak, Table 4) (NANOLUC® Luciferase [1]; NanoLuc, OptiMEM)	High (NANOLUC® Luciferase [1]; NanoLuc, NanoGlo Buffer)	Low (NANOLUC® Luciferase [1]; NanoLuc, NanoGlo Buffer)	Peak (NANOLUC® Luciferase [1]; NanoLuc, NanoGlo Buffer)	Width (NANOLUC® Luciferase [1]; NanoLuc, NanoGlo Buffer)	High (NANOLUC® Luciferase [1]; NanoLuc, OptiMEM + 0.1% FBS)	Low (NANOLUC® Luciferase [1]; NanoLuc, OptiMEM + 0.1% FBS)	Peak (NANOLUC® Luciferase [1]; NanoLuc, OptiMEM + 0.1% FBS)	Width (NANOLUC® Luciferase [1]; NanoLuc, OptiMEM + 0.1% FBS)	lower RLU values with NanoLuc compared to AS-360 (NANOLUC® Luciferase [2]) [×]	enzyme dependent luminescence with Renilla Luciferase (Renilla luciferase)	Km [3] [µM]
N#Cc1ccc(-c2[nH]c(-c3ccc(O)cc3)cn3c(=O)c(Cc4ccco4)nc2-3)s1 [AS-353, 5-(2-(furan-2-ylmethyl)-6-(4-hydroxyphenyl)-3-oxo-3,7-dihydroimidazo[1,2-a]pyrazin-8-yl)thiophene-2-carbonitrile]	shifted the NanoLuc® luciferase spectral properties to red	592	583	652	550	592	102	637	544	583	93	~100	only at the highest enzyme concentration	–
B1	–	–	–	–	–	–	–	–	–	–	–	–	–	10.6
